Patent publication US20120172384A1, “HETEROCYCLYLAMINOPYRIMIDINES AS KINASE INHIBITORS” (priority 2009, published 2012)
Blank lines part the entries; values can stand above or below the compound they belong to.

Assays:
[1] = system: organ transplantation; conditions: Changelian et al., 2003; cited from earlier work
[2] = target: T1, JAK3 (Homo sapiens, UniProt P52333); experiment: JAK3 kinobeads assay; assay type: binding; conditions: cell lysate, dot blot with JAK3 specific antibody
T1 construct: endogenous in cells
T1 sequence (P52333 1-1124): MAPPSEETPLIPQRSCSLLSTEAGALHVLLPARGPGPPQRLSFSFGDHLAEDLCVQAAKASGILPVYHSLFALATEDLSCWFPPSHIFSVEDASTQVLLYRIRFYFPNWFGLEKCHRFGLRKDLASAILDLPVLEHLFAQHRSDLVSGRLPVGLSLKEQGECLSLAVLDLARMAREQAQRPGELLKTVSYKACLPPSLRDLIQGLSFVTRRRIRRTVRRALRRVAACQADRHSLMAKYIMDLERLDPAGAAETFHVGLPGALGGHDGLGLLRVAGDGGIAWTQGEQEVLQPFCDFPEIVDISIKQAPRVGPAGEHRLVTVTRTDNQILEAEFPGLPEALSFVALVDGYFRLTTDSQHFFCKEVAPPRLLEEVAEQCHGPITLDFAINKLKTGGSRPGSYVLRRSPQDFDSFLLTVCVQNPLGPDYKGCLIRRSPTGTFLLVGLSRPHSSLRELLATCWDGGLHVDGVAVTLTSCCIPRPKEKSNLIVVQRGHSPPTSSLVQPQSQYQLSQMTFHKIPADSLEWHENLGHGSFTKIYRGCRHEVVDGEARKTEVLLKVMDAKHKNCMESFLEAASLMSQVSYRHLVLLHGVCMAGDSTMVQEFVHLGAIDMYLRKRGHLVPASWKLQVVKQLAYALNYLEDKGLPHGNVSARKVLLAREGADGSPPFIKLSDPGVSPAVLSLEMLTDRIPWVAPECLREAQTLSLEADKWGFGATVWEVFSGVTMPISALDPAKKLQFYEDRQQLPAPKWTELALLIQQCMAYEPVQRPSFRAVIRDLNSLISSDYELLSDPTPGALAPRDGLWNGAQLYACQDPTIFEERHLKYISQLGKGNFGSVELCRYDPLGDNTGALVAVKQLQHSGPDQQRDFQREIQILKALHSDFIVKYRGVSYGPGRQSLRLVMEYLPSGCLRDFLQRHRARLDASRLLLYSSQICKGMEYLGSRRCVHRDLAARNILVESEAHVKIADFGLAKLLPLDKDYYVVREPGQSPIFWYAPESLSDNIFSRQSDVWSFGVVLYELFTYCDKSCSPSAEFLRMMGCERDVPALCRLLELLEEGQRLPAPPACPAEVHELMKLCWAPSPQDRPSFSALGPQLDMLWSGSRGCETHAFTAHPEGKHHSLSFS
Method in brief: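 In this competition pulldown, test compounds at various concentrations were incubated in cell lysate together with beads carrying an immobilized aminopyrido-pyrimidine ligand. Bead-bound proteins were eluted, and JAK3 was quantified by dot blot with a JAK3-specific antibody and infrared detection.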

[3] = target: T2, ZAP-70 (Homo sapiens, UniProt P43403); experiment: ZAP-70 kinobeads assay; assay type: binding; conditions: cell lysate, dot blot with ZAP-70 antibody
T2 construct: endogenous in cells
T2 sequence (P43403 1-619): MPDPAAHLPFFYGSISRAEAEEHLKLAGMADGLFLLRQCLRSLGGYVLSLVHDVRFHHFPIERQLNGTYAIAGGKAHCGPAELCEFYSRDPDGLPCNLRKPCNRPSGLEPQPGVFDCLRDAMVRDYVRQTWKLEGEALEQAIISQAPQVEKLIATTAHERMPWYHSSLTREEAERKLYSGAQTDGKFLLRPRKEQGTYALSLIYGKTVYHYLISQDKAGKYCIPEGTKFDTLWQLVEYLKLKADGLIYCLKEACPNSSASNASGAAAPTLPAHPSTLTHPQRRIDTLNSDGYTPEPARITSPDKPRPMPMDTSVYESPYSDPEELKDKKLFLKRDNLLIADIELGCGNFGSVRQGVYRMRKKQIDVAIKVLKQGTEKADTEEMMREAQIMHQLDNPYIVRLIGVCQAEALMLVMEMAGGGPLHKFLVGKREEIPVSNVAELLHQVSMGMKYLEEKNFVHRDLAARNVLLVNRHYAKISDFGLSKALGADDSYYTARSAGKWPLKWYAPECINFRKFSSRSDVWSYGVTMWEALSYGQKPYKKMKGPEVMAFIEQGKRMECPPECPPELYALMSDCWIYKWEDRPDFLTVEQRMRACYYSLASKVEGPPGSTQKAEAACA

[4] = system: rheumatoid arthritis; conditions: animal model of rheumatoid arthritis (Pine et al., 2007); cited from earlier work
[5] = system: rheumatoid arthritis; conditions: rheumatoid arthritis (Weinblatt et al., 2008); cited from earlier work

Compound: C[C@@H]1CCN(C(=O)CC#N)C[C@@H]1N(C)c1ncnc2[nH]ccc12 [CP-690,550]
efficacy in animal model of organ transplantation [1]: show efficacy

IC50 [2]: 1000 to 10000 nM
IC50 [3]: 100 to 1000 nM
Compound: COCCn1nc(C)cc1Nc1ncc(Cl)c(Nc2ccc(OC)cc2NS(C)(=O)=O)n1 [Example 96, N-(2-((5-chloro-2-((1-(2-methoxyethyl)-3-methyl-1H-pyrazol-5-yl)amino)pyrimidin-4-yl)amino)-5-methoxyphenyl)methanesulfonamide]

Compound: COc1cc(Nc2ncc(F)c(Nc3ccc4c(n3)NC(=O)C(C)(C)O4)n2)cc(OC)c1OC [Example R406]
inflammation and bone erosion [4]: suppresses inflammation and bone erosion

Compound: COc1cc(Nc2ncc(F)c(Nc3ccc4c(n3)N(COP(=O)(O)O)C(=O)C(C)(C)O4)n2)cc(OC)c1OC [Example R788]
efficacy in clinical study [5]: demonstrated efficacy
